Measured values published in ChEMBL document CHEMBL5696442, “Discovery of type II inhibitors of TGFβ-activated kinase 1 (TAK1) and mitogen-activated protein kinase kinase kinase kinase 2 (MAP4K2)” (J Med Chem, 2015).
Activity calls are given as the source filed them. The calls are words filed in the database; no cut-off is given here.

How the values were obtained:
[1] = biological target: Mitogen-activated protein kinase 7 (Homo sapiens) (UniProt Q13164); experiment: Inhibition of Erk5 Lys2 labeling site in human Huh-7 cell lysate at 1 uM by KiNativ Profiling analysis relative to control; assay type: subcellular
Sequence of Mitogen-activated protein kinase 7 (Homo sapiens) (Q13164 2-816 limits assumed): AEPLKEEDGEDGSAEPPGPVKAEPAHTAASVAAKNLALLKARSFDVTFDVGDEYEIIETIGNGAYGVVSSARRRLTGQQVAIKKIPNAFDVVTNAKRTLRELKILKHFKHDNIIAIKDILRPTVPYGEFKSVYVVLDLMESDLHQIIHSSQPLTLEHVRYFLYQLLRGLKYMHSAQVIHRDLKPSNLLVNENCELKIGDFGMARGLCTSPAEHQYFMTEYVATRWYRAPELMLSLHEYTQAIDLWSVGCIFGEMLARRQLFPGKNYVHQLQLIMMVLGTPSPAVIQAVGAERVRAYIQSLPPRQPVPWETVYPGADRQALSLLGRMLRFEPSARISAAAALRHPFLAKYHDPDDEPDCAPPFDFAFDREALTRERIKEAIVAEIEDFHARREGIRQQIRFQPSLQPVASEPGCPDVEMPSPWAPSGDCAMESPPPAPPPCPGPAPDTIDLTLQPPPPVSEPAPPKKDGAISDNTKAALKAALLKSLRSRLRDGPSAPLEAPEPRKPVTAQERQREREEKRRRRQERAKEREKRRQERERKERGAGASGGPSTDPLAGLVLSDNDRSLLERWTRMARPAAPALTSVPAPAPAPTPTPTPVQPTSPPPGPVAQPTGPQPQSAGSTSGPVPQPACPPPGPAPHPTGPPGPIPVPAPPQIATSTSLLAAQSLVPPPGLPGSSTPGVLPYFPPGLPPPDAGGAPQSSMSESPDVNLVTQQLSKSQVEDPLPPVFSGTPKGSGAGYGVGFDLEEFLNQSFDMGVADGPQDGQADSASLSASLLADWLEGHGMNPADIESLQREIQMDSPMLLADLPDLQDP

[2] = biological target: Phosphatidylinositol 4-kinase alpha (Homo sapiens) (UniProt P42356); experiment: Inhibition of PI4KA ATP labeling site in human Huh-7 cell lysate at 1 uM by KiNativ Profiling analysis relative to control; assay type: subcellular
Sequence of Phosphatidylinositol 4-kinase alpha (Homo sapiens) (P42356 whole entry, looked up): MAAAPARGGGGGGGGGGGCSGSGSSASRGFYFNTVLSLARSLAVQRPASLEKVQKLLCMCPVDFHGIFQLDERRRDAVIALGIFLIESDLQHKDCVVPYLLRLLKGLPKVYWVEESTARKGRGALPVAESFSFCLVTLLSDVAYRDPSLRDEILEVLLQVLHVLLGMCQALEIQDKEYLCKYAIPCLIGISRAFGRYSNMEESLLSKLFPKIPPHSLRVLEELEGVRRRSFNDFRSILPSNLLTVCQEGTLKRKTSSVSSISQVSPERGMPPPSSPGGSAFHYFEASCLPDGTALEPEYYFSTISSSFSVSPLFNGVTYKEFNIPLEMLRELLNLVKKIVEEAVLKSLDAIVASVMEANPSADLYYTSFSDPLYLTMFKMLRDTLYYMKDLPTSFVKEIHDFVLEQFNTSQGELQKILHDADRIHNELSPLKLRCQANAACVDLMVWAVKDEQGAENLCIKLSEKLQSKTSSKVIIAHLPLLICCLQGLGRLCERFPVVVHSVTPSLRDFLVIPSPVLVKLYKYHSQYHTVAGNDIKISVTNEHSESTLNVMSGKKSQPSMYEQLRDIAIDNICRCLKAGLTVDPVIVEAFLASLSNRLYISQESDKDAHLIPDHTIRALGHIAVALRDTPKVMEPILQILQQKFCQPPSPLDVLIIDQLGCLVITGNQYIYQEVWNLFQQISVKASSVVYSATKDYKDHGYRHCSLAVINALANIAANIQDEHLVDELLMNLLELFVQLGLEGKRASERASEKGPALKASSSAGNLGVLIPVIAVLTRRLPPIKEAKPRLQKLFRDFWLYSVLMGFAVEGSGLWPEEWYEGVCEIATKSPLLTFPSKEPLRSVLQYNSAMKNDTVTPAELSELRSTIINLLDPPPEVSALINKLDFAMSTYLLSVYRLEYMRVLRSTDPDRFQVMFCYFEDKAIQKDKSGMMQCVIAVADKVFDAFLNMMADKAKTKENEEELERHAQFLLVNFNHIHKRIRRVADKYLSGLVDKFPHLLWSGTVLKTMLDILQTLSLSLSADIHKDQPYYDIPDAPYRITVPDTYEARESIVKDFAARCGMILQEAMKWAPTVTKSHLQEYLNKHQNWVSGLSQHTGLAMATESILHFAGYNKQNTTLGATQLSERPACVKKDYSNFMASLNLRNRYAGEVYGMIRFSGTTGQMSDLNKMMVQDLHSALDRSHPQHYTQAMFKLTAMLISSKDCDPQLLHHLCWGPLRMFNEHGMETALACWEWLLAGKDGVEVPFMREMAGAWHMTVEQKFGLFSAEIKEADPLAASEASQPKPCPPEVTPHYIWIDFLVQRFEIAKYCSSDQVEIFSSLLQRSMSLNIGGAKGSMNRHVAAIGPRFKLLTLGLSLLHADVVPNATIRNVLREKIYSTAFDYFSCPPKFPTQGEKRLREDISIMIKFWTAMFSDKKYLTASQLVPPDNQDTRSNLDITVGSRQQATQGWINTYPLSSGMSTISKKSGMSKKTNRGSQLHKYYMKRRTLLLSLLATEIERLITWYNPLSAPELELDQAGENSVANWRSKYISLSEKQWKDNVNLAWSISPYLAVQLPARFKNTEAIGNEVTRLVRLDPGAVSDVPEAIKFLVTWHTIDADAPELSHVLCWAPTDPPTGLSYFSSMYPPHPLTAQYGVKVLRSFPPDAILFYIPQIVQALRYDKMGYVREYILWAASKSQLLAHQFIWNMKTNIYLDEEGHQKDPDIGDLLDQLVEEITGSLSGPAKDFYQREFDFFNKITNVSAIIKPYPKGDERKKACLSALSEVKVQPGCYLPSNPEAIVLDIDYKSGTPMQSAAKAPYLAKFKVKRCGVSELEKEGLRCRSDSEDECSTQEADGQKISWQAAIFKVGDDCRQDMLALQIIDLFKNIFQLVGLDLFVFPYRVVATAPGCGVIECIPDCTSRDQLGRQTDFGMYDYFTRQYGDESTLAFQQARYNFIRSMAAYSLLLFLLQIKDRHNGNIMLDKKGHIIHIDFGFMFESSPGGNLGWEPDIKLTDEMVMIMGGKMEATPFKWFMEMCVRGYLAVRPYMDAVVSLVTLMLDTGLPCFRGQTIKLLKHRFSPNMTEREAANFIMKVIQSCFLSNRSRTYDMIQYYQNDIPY

[3] = biological target: T1, Serine/threonine-protein kinase D1 (Homo sapiens) (UniProt Q15139); experiment: Inhibition of PKD1 Lys2 labeling site in human Huh-7 cell lysate at 1 uM by KiNativ Profiling analysis relative to control; assay type: subcellular
T1 sequence (whole entry): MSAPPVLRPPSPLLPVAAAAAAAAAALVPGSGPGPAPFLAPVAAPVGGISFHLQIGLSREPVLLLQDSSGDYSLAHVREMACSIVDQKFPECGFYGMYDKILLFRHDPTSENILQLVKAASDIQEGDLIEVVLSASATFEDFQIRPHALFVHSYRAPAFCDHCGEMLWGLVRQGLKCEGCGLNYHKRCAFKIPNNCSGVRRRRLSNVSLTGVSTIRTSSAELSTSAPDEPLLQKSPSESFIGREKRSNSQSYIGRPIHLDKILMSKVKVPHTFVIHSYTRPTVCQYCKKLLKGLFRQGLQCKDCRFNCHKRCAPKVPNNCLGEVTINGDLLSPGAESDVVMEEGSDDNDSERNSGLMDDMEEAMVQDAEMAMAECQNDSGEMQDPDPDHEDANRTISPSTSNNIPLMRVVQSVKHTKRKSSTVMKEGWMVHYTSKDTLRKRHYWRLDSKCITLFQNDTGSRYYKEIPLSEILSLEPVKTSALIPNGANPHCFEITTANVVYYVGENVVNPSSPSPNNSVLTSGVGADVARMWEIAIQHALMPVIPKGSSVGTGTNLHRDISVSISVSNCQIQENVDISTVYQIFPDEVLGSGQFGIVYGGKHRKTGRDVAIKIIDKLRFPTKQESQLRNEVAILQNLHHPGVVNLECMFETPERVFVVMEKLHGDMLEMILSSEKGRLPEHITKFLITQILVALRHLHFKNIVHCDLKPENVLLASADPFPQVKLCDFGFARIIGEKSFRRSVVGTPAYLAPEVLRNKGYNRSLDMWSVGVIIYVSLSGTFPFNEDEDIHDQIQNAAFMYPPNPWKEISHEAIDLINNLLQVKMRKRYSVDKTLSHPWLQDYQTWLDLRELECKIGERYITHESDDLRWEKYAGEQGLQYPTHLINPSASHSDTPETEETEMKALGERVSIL

[4] = biological target: 5'-AMP-activated protein kinase catalytic subunit alpha-1 (Homo sapiens) (UniProt Q13131); experiment: Inhibition of AMPKa1 Lys1 labeling site in human Huh-7 cells at 1 uM by KiNativ Profiling analysis relative to control; assay type: cell-based
[5] = biological target: Serine/threonine-protein kinase Nek4 (Homo sapiens) (UniProt P51957); experiment: Inhibition of NEK4 Lys2 labeling site in human A-375 cells at 0.5 uM by KiNativ Profiling analysis relative to control; assay type: cell-based
[6] = biological target: Tyrosine-protein kinase Tec (Homo sapiens) (UniProt P42680); experiment: Inhibition of TEC (unknown origin) at 1 uM by Ambit Kinomescan binding assay relative to control
[7] = tested on: Leucine-rich repeat serine/threonine-protein kinase 2 (Homo sapiens), Q5S007 [G2019S]; experiment: Inhibition of LRRK2 G2019S mutant (unknown origin) at 1 uM by Ambit Kinomescan binding assay relative to control; values are per cent of control
[8] = biological target: Serine/threonine-protein kinase 4 (Homo sapiens) (UniProt Q13043); experiment: Inhibition of MST1 Lys1 labeling site harbouring ETGQIVAIKQVPVESDLQEIIK in human A-375 cells at 0.5 uM by KiNativ Profiling analysis relative to control
[9] = tested on: Tyrosine-protein kinase ABL1 (Homo sapiens), P00519 [F317L]; experiment: Inhibition of phosphorylated ABL1 F317L mutant (unknown origin) at 1 uM by Ambit Kinomescan binding assay relative to control; values are per cent of control
Sequence of Tyrosine-protein kinase ABL1 (Homo sapiens), P00519 [F317L] (P00519 whole entry F317L): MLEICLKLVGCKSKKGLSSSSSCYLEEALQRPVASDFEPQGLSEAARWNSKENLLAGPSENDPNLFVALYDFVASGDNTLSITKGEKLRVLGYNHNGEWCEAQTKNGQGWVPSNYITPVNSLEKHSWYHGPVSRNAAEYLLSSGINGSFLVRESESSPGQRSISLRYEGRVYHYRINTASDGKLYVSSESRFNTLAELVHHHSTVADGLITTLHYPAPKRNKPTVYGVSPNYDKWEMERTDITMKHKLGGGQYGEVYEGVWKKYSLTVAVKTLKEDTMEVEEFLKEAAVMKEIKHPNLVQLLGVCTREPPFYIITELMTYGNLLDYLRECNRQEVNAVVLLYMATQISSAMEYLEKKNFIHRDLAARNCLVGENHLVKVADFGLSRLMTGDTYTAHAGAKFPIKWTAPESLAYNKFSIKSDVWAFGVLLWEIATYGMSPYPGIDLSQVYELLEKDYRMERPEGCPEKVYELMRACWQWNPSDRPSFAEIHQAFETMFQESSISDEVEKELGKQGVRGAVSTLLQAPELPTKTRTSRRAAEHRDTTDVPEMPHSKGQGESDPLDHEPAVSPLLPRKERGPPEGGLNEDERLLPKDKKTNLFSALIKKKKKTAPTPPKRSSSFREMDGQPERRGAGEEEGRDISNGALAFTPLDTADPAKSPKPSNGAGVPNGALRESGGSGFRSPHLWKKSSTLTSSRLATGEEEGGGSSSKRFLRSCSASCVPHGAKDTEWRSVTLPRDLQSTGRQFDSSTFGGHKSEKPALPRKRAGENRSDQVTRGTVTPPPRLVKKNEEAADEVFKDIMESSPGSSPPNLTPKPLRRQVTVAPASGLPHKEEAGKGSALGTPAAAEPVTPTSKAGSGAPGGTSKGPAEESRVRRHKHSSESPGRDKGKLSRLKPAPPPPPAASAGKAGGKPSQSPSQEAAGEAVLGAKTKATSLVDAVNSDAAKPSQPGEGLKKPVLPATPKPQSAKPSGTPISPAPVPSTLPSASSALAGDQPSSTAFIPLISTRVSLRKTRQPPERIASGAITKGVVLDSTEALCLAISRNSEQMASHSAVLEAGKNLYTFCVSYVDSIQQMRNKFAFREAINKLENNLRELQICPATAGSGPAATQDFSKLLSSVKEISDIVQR

[10] = biological target: Tyrosine-protein kinase ABL1 (Homo sapiens, UniProt P00519); experiment: Inhibition of ABL Lys1 labeling site in human A-375 cells at 5 uM by KiNativ Profiling analysis relative to control; assay type: cell-based
Sequence of Tyrosine-protein kinase ABL1 (P00519 whole entry): as the sequence (P00519 whole entry F317L) above, with L317F counted along it

[11] = biological target: Activin receptor type-2A (Homo sapiens) (UniProt P27037); experiment: Inhibition of ACVR2A (unknown origin) at 10 uM by Ambit Kinomescan binding assay
[12] = biological target: Calcium/calmodulin-dependent protein kinase type II subunit delta (Homo sapiens) (UniProt Q13557); experiment: Inhibition of CAMK2D (unknown origin) at 10 uM by Ambit Kinomescan binding assay
[13] = biological target: T2, Mitogen-activated protein kinase kinase kinase 3 (Homo sapiens) (UniProt Q99759); experiment: Inhibition of MAP3K3 (unknown origin) at 10 uM by Ambit Kinomescan binding assay relative to control
T2 sequence (whole entry): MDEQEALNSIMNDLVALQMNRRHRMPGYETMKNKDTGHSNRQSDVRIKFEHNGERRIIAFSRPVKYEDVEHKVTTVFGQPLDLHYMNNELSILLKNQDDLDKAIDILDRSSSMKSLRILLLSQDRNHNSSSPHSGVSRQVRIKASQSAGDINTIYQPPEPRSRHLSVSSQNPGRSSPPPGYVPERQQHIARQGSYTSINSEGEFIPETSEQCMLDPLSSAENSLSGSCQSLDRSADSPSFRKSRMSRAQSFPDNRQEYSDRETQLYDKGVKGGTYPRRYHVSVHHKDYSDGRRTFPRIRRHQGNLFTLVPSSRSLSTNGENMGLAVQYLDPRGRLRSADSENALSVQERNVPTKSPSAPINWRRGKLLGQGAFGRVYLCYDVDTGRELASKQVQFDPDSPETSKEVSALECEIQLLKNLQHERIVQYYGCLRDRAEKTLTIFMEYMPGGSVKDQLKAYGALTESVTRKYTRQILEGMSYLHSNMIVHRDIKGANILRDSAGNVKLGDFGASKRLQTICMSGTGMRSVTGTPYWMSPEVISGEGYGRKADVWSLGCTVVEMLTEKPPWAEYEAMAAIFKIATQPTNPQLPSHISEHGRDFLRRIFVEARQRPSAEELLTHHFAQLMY

[14] = biological target: Activated CDC42 kinase 1 (Homo sapiens) (UniProt Q07912); experiment: Inhibition of TNK2 (unknown origin) at 10 uM by Ambit Kinomescan binding assay
Sequence of Activated CDC42 kinase 1 (Homo sapiens) (Q07912 whole entry, looked up): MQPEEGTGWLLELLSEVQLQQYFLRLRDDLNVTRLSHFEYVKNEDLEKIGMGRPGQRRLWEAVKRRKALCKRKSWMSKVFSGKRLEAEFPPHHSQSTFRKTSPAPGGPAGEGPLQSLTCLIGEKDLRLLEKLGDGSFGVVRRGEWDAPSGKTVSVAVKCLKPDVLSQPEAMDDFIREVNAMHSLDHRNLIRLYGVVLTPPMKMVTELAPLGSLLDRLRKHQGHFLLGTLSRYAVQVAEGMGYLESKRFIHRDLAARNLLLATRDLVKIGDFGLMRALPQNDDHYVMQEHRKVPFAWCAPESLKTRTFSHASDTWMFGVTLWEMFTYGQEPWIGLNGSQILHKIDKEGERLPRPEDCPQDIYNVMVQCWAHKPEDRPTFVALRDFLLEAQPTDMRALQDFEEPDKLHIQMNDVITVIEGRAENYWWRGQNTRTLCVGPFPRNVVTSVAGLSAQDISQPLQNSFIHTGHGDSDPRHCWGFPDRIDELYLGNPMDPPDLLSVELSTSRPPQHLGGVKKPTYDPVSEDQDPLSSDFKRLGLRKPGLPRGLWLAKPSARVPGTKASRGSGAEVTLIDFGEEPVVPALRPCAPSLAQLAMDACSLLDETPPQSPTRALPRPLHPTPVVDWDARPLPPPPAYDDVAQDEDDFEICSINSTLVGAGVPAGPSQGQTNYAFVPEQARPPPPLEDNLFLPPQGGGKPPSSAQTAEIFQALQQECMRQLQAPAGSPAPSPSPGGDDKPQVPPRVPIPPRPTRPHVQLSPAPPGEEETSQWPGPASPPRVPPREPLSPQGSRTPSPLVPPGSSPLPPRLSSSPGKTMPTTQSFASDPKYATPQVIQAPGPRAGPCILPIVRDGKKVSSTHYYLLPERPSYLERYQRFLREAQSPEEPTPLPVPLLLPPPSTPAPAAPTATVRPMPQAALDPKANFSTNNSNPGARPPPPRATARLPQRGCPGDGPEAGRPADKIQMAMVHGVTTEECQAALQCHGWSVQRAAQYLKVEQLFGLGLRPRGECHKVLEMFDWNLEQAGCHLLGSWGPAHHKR

[15] = biological target: Tyrosine-protein kinase Yes (Homo sapiens) (UniProt P07947); experiment: Inhibition of YES (unknown origin) at 10 uM by Ambit Kinomescan binding assay relative to control; values are per cent of control
[16] = biological target: Fibroblast growth factor receptor 1 (Homo sapiens) (UniProt P11362); experiment: Inhibition of FGFR1 (unknown origin) at 10 uM by Ambit Kinomescan binding assay relative to control; values are per cent of control

Structure (SMILES): CNc1cc(Oc2cc(C(=O)Nc3cc(N4CCN(C)CC4)cc(C(F)(F)F)c3)ccc2C)ncn1
- inhibition [1]: -6.5%
- inhibition [2]: 2%
- inhibition [3]: -3.5%
- inhibition [4]: -7.5%

Structure (SMILES): CCN1CCN(Cc2ccc(NC(=O)c3ccc(C)c(/C=C/c4cnc5[nH]ccc5c4OC)c3)cc2C(F)(F)F)CC1
- inhibition [5]: 8.6%
- inhibition [6]: 16%
- residual activity [7]: 71%
- inhibition [8]: 17.4%
- percent of control [9]: 3.4%

Structure (SMILES): CCN1CCN(Cc2ccc(NC(=O)c3ccc(C)c(Oc4ccnc5[nH]ccc45)c3)cc2C(F)(F)F)CC1
- inhibition [10]: 86.8%
- inhibition [11]: inactive
- inhibition [12]: inactive
- inhibition [13]: 12%
- inhibition [14]: inactive
- residual activity [15]: 1.6%
- % of control [16]: 1.7%
